The results in this text go back to PMC3624797 (Journal of Medicinal Chemistry, 2013).

A value given as a limit tells only on which side of the number the result lay.

A short description of data set [1]: Metabolic stability in human liver microsomes. The class given is in vitro ADME.
The nature of a further data set: Oral exposure in mice. The class given is in vivo, mouse. The conditions noted are these: single oral dose 50 mg/kg, suspension in PEG400, after ∼5 h.
Data set [2] is described as follows: Blood and plasma stability. The class given is in vitro ADME. The note with it: rat blood and plasma, over 4 h at 37 °C.
Data set [3] can be described thus: Tolerability observed in rat PK studies. The class given is in vivo. The note with it: rats; for hemolysis: dosed iv, most likely arising from the vehicle; for signs of toxicity: orally or ip at doses up to ∼20 mg/kg.
The nature of the next data set: Chemical stability. The class given is physicochemical.
For data set [4] the following is noted: rat dosed intravenously.
A short description of another data set: in vivo. The note with it: male, Sprague Dawley, rat, plasma.
Data set [5] is described as follows: Metabolic stability in mouse liver microsomes. The class given is in vitro ADME. The conditions noted are these: for metabolic stability (in words): incubated with mouse liver microsomes. Background: Liver microsomes are a subcellular fraction often used to study metabolism.
A short description of data set [6]: Metabolic stability in rat liver microsomes. The class given is in vitro ADME.

Consider `CCOC(=O)C1=C(C)N/C(=C/c2cc(C)n(-c3ccccc3C(F)(F)F)c2C)C1=O` [Compound 8a, Ethyl (5E)-5-[[2,5-dimethyl-1-[2-(trifluoromethyl)phenyl]pyrrol-3-yl]methylene]-2-methyl-4-oxo-1H-pyrrole-3-carboxylate], for which, in data set [1], the metabolites detected result is given as “none”. Also, in the data set “Oral exposure in mice”, the plasma levels was < 10 nM. In addition, the “hydrolyzed to the acid 10c” value in data set [2] was ~25%. In data set [3], the hemolysis entry is listed as “slight degree of hemolysis” and the signs of toxicity entry is recorded as “No sign of toxicity”. The “chemical stability (in words)” value in the data set “Chemical stability” is “fairly resistant to chemical hydrolysis”. In data set [4], the “glutathione conjugation adducts in urine” value is on record as “no adducts resulting from conjugation with glutathione were detected”. In “in vivo”, the half-life (as a rule, the time needed for the level to fall by half in the phase considered) is ≥ 8 h.
As to `CCOC(=O)C1=C(C)N/C(=C/c2cc(C)n(-c3ccc(CN(C)C)cc3)c2C)C1=O` [Compound 8aa], in data set [5], the “metabolic stability (in words)” value is recorded as “slightly more stable”.
Consider `CCOC(=O)C1=C(C)N/C(=C/c2cc(C)n(-c3ccc(C(F)(F)F)cc3)c2C)C1=O` [Compound 8b, Ethyl (5E)-5-[[2,5-Dimethyl-1-[4-(trifluoromethyl)phenyl]pyrrol-3-yl]methylene]-2-methyl-4-oxo-1H-pyrrole-3-carboxylate], for which the metabolites detected result in data set [5] (mouse liver microsomes (Table 6)), in data set [1] and in data set [6] was “none” each time. Also, the half-life at 1 μM in [1] is 0.583 h. The hemolysis entry in data set [3] was “slight degree of hemolysis”. Also, in data set [3], the signs of toxicity result is recorded as “No sign of toxicity”. Further, the half-life in “in vivo” is ≥ 8 h.
Turning to `CCOC(=O)C1=C(C)N/C(=C/c2cc(C)n(-c3ccc(N4CCOCC4)cc3)c2C)C1=O` [Compound 8u], the “metabolic stability (in words)” value in data set [5] is given as “slightly more stable”.
In the case of `CCOC(=O)C1=C(C)N/C(=C/c2ccn(-c3ccccc3C(F)(F)F)c2)C1=O` [Compound 9a], the “metabolic stability (in words)” value in data set [5] is “even lower metabolic stability”.
Still for that read-out and setting: the entry for `CCOC(=O)C1=C(C)N/C(=C/c2ccn(-c3ccc(C(F)(F)F)cc3)c2)C1=O` [Compound 9b] is “even lower metabolic stability”; for `CCOC(=O)C1=C(C)N/C(=C/c2cc(CC)n(-c3ccccc3C(F)(F)F)c2CC)C1=O` [Compound 9c, Ethyl (5E)-5-[[2,5-Diethyl-1-[2-(trifluoromethyl)phenyl]pyrrol-3-yl]methylene]-2-methyl-4-oxo-1H-pyrrole-3-carboxylate] it is “even lower metabolic stability”.
The same measure, in the same setting: the entry for `CC1=CC(=O)/C(=C\c2cc(C)n(-c3ccccc3C(F)(F)F)c2C)N1` [Compound 10d] is “slightly more stable”.
Turning to `CCOC(=O)C1=C(C)NC(Cc2cc(C)n(-c3ccccc3C(F)(F)F)c2C)C1=O` (stereo not shown) [Compound 11b], the “chemical stability (in words)” value in the data set “Chemical stability” was “less stable chemically”.
